Measurements taken from patent publication US11273161B2, “Methods of treating autism spectrum disorders” (The Broad Institute, Inc., priority 2016, dated 2022).

Assays:
ADSS [1] = molecular target: T1, ADSS (Homo sapiens, UniProt P30520); assay: LC-MS purine metabolite levels in human control fibroblast cell lysates after ADSS inhibition; type: cell-based; details: human control fibroblasts, 12 hours, 10 mg/mL, FIG. 19
T1 construct: fibroblasts from unaffected individuals were obtained from Mclean Hospital collection of primary fibroblasts; endogenous in cells; host or cells: primary human control fibroblasts (McLean Hospital collection)
T1 sequence (P30520 whole entry): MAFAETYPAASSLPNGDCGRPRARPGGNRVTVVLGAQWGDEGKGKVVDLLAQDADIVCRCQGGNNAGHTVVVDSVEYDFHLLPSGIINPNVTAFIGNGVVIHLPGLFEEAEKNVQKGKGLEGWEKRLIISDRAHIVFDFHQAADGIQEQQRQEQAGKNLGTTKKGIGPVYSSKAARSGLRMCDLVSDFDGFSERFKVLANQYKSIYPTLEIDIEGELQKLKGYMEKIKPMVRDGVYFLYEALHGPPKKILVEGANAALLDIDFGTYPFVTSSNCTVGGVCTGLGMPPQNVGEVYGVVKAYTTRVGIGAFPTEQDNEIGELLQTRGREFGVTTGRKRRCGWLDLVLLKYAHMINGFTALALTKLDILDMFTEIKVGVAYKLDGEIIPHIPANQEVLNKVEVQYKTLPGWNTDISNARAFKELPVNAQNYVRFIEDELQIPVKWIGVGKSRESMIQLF
Description: (§1) 16p11.2 deletion patient fibroblast samples were acquired from the Simons Foundation VIP collection. For comparison, fibroblasts from unaffected individuals were obtained from Mclean Hospital collection of primary fibroblasts (Cohen, Ongur, McPhee). Fibroblasts were grown in DMEM supplemented with 10% serum (Gibco). For metabolic experiments, 160,000 cells/well were plated in DMEM (Gibco) supplemented with 10% fetal bovine serum (Gibco) in 12 well plates. For neurons, 1 million primary mouse neurons/well were plated in 6 well plates and were extracted similar to fibroblasts as described below except volumes were doubled to accommodate the extra surface area.
Next, metabolic changes were determined between 16p11.2 deletion patient fibroblasts compared with control fibroblasts. For metabolite extraction, samples were collected from either cells or the cell media. Cell samples were extracted from cells grown in 12 well plates. Cell samples were extracted by washing cells once with 1 mL ice-cold PBS, transferring to dry ice, followed by adding 400 μL of 80% methanol (VWR) containing the internal standards inosine-^15N4, thymine-d4, and glycocholate-d4 (Cambridge Isotope Laboratories). Cells were then incubated for 15 minutes at −80° C., followed by scraping and transfer of the methanol and cells to a 1.5 mL tube. Cells were centrifuged (10 min, 9,000 g, 4° C.), and the supernatant was transferred to a new 1.5 mL tube. The pellet was extracted again with 50 μL of 80% methanol containing internal standards and centrifuged. The supernatant was then pooled with the previously collected methanol sample. Media supernatant samples (30 μL) were extracted using 120 μL of 80% methanol (VWR) containing the internal standards inosine-^15N4, thymine-d4, and glycocholate-d4 (Cambridge Isotope Laboratories). The samples were centrifuged (10 min, 9,000 g, 4° C.). The resulting supernatant was transferred to a new tube. Samples were stored at −80° C. until analysis.
A method using basic hydrophilic interaction chromatography (HILIC) separation and negative ionization mode MS detection was established on an LC-MS system consisting of an ACQUITY UPLC (Waters Inc.) coupled to a 5500 QTRAP triple quadrupole mass spectrometer (AB SCIEX). […]
(§2) Raw data were processed using MultiQuant 1.2 software (AB SCIEX) for automated LC-MS peak integration. […] Internal standard peak areas were monitored for quality control, to assess system performance over time, and to identify any outlier samples requiring re-analysis. A pooled plasma reference sample was also analyzed after sets of 20 study samples as an additional quality control measure of analytical performance and to serve as reference for scaling raw LC-MS peak areas across sample batches. […]

ADSS [2] = molecular target: T2, ADSS (Mus musculus, UniProt P46664); assay: S-Ado levels in cultured neurons from kctd13Δ47 mice contacted with L-alanosine; type: cell-based; details: increasing concentrations (0, 0.01, 0.1 μM), FIG. 22
T2 construct: endogenous in cells; host or cells: primary mouse neurons, DIV21 (WT in A3; WT and Kctd13Δ47 in A4)
T2 sequence (P46664 whole entry): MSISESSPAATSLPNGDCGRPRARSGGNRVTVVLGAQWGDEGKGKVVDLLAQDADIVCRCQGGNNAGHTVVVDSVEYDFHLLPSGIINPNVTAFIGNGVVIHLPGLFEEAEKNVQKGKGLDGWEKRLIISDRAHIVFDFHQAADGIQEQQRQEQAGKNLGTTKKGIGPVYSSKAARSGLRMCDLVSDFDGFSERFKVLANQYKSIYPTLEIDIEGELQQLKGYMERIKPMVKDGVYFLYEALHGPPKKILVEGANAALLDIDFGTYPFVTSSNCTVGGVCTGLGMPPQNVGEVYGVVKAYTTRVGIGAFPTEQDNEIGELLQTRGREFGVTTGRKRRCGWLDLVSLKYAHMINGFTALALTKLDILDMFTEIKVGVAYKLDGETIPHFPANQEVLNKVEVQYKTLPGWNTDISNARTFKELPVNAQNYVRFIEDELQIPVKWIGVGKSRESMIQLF
Description: as §1
Next, metabolic changes were determined between 16p11.2 deletion patient fibroblasts compared with control fibroblasts. For metabolite extraction, samples were collected from either cells or the cell media. […]
as §2

ADSS [3] = molecular target: T2, ADSS; assay: Dose-response of IMP levels in cell lysates of DIV21 neurons from WT mice; type: cell-based; details: FIG. 20
Description: FIGS. 20A-B show IMP levels in cell lysates of DIV21 neurons from WT mice following treatment with D, L-alanosine or L-alanosine, or untreated (U).
as §1, with “For neurons, 1 million primary mouse neurons/well were plated in 6 well plates and were extracted similar to fibroblasts as described below except volumes were doubled to accommodate the extra surface area.” left out
Next, metabolic changes were determined between 16p11.2 deletion patient fibroblasts compared with control fibroblasts. […]
as §2
Next, purine metabolites were assessed in cell lysates and supernatants of cultured neurons from wild-type and kctd13Δ47 mice. […]

ADSS [4] = assay: Western blot of ADSS protein levels in neurons after proteasome or Cullin inhibition; type: cell-based, mouse; details: neurons from Kctd13Δ47 mice, treated 5 hours with 2 μM, FIG. 5
From the text: Protein lysates were generated from mouse neurons prepared from wildtype or Kctd13Δ47 mice. C57B6 timed pregnant females were euthanized following IACUC approved method. E18 embryos were collected and rapidly decapitated. Embryos were then washed in dissection media (Hibernate-E (Hib-E, Gibco) supplemented with 100 U/mL penicillin streptomycin (Pen/Strep, Gibco)). Brains were isolated, cortices were separated from the midbrain and meninges was removed from each cortex. Each cortex was cut into six pieces; five cortices were pooled for dissociation. To dissociate 5 cortices, one Papain kit (Worthington LK3176) was reconstituted in 5 mLs Hib-E and activated at 37° C. for 10 minutes. Following activation, DNAse I (Sigma) was added to a concentration of 10 μg/mL and filter sterilized using a 0.22 μm filter. Cortices were washed twice with 5 mLs of Hib-E and 5 mLs of activated papain/DNAseI was added to the cortices and incubated for 8 minutes at 37° C. Following digestion, cortices were washed three times with 10 ml Hib-E per wash. Cortices were then triturated 10-15 times with a P1000 pipette in 1 mL NBActive4 supplemented with 10 μg/mL DNAseI filter sterilized using a 0.22 μm filter. […] Cells were counted in a hemocytometer, diluted and plated at 1 million cells/well in a 6 well poly-D-lysine (Corning, Biocoat) or 6 million cells/10 cm poly-D-lysine plate (Corning, Biocoat). […]

N[C@@H](CN(O)N=O)C(=O)O [L-alanosine, L-2-amino-3-(N-hydroxy-N-nitrosamino) propionic acid]
levels of ADP (ADSS [1]): decreased | levels of AMP (ADSS [1]): decreased | levels of IMP (ADSS [1]): increased | levels of aminoimidazole carboxamide ribotide (AICAR) (ADSS [1]; metabolite upstream of ADSS): not affected | S-Ado levels (ADSS [2]): decreased | IMP levels (ADSS [3]): dose-dependent increase

NC(CN(O)N=O)C(=O)O (racemic) [D,L-alanosine, 3-(Hydroxynitrosoamino)-D,L-alanine]
IMP levels (ADSS [3]): dose-dependent increase

CC(C)C[C@H](NC(=O)[C@H](Cc1ccccc1)NC(=O)c1cnccn1)B(O)O [bortezomib]
change in ADSS levels (ADSS [4]): no change

NS(=O)(=O)OC[C@@H]1C[C@@H](n2ccc3c(N[C@H]4CCc5ccccc54)ncnc32)C[C@@H]1O [MLN4924]
change in ADSS levels (ADSS [4]): no change
